Source: patent publication US9671406B2, “SPARC and methods of use thereof” (Abraxis BioScience, LLC, priority 2006, dated 2017)

Tested on: gp60-mediated caveolar transcytosis
Assay: Inhibition of transport of paclitaxel from ABX across endothelial monolayers
Assay type: cell-based, human
Settings: FIG. 4
Description: Transport was dependent on albumin.

Molecule | effect on transport of paclitaxel from ABX across endothelial monolayers
CCN1C(=O)C=CC1=O [NEM] | inhibited
β-methyl cyclodextrin [BMC] | inhibited
